Measurements: US20260166128A1, “HUMAN AMYLIN ANALOG, AND DERIVATIVE THEREOF AND USE THEREOF” (priority 2022, published 2026)
pEC50: −log10 of the molar value. Numbered stars: 1 amine (or outer) side, 2 acyl side, 3 side chain; on linkers, the order of the positions; unused ones are H or OH. Bridge positions count the residues as written; N and C are the ends. Square brackets hold non-standard residues; d marks the D form. Side chains are listed from the residue outwards. Peptide text beside a SMILES is read from it. * marks the point of attachment. C20 diacid = O=C(O)CCCCCCCCCCCCCCCCCCC(=O)*; C18 diacid = O=C(O)CCCCCCCCCCCCCCCCC(=O)*; γGlu = O=C(O)[C@H](CCC(=O)[*:2])N[*:1]; βAsp = O=C(O)[C@H](CC(=O)[*:2])N[*:1]; Hyp = O=C(O)[C@@H]1C[C@@H](O)CN1; Dap = NC[C@H](N)C(=O)O; AEEA = NCCOCCOCC(=O)O

Biological target: T1, human amylin receptor (Homo sapiens, UniProt O60896+P30988)
T1 construct: host or cells: CHO-K1/Ga15/AMY3 cells, further stably transfected with a CRE-luciferase plasmid
T1 sequence (P30988 25-474): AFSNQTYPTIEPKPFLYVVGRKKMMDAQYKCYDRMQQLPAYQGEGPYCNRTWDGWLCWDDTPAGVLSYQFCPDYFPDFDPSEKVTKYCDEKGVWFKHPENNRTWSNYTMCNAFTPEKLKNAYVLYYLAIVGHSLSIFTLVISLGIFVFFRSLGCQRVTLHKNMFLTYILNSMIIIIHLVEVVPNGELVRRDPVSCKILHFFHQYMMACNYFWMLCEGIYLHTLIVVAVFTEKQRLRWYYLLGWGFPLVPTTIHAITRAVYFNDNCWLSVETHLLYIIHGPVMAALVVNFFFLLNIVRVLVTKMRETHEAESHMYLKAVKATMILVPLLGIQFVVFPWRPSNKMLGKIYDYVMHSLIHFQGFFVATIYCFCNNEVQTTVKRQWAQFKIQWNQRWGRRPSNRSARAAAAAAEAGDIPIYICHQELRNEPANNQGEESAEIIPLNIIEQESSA
T1 sequence (O60896 24-148 partner): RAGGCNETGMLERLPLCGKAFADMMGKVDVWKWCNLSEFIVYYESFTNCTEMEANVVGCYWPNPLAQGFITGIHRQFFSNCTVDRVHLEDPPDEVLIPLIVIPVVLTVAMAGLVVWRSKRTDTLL
Test: Luciferase assay of amylin derivatives in amylin receptor/CRE-luc CHO cell line
Type: cell-based
Settings: CHO-K1/Ga15/AMY3 CRE-luc cells, 24 hours incubation, F12 medium containing 10% FBS; read-out: EC50
Procedure: The experiment was intended to detect the activity or efficacy of the amylin derivatives on a human amylin receptor in vitro by luciferase assay.
50 μL of growth medium (F12 medium containing 10% FBS) was added into each well of a white 96-well plate, and the stably transfected amylin/CRE-lue CHO cells were inoculated into the white 96-well plate at a density of about 20,000 cells/well for activity determination.

| Compound | pEC50 |
| --- | --- |
| CC[C@H](C)[C@H](NC(=O)[C@@H]1CCCN1C(=O)[C@H](CCCCN)NC(=O)[C@H](CC(C)C)NC(=O)[C@H](CC(N)=O)NC(=O)[C@H](CC(N)=O)NC(=O)[C@H](CO)NC(=O)[C@H](CO)NC(=O)[C@H](Cc1c[nH]cn1)NC(=O)[C@H](CCCNC(=N)N)NC(=O)[C@H](CC(C)C)NC(=O)[C@H](Cc1ccccc1)NC(=O)[C@H](CC(=O)O)NC(=O)[C@H](C)NC(=O)[C@H](CC(C)C)NC(=O)[C@H](CCCNC(=N)N)NC(=O)[C@H](CCC(N)=O)NC(=O)[C@@H](NC(=O)[C@H](C)NC(=O)[C@@H]1CSSC[C@H](NC(=O)[C@H](CCCCN)NC(=O)[C@H](CC(=O)O)NC(=O)COCCOCCNC(=O)COCCOCCNC(=O)CCCCCCCCCCCCCCCCCCC(=O)O)C(=O)N[C@@H](CC(N)=O)C(=O)N[C@@H]([C@@H](C)O)C(=O)N[C@@H](C)C(=O)N[C@@H]([C@@H](C)O)C(=O)N1)[C@@H](C)O)C(=O)N[C@@H](CC(C)C)C(=O)N1CCC[C@H]1C(=O)N1CCC[C@H]1C(=O)N[C@H](C(=O)N[C@@H](CC(N)=O)C(=O)N[C@H](C(=O)NCC(=O)N[C@@H](CO)C(=O)N[C@@H](CC(N)=O)C(=O)N[C@H](C(=O)N1CCC[C@H]1C(N)=O)[C@@H](C)O)C(C)C)[C@@H](C)O [PD194] ({C20 diacid-AEEA-AEEA}-DKCNTATCATQRLADFLRHSSNNLKPILPPTNVGSNTP-NH2; disulfide 3-8 (inferred)) | 10.13 |
| CC[C@H](C)[C@H](NC(=O)[C@@H]1CCCN1C(=O)[C@H](CCCCNC(=O)CC[C@H](NC(=O)CCCCCCCCCCCCCCCCCCC(=O)O)C(=O)O)NC(=O)[C@H](CC(C)C)NC(=O)[C@H](CC(N)=O)NC(=O)[C@H](CC(N)=O)NC(=O)[C@H](CO)NC(=O)[C@H](CO)NC(=O)[C@H](Cc1c[nH]cn1)NC(=O)[C@H](CCCNC(=N)N)NC(=O)[C@H](CC(C)C)NC(=O)[C@H](Cc1ccccc1)NC(=O)[C@H](CC(=O)O)NC(=O)[C@H](C)NC(=O)[C@H](CC(C)C)NC(=O)[C@H](CCCNC(=N)N)NC(=O)[C@H](CCC(N)=O)NC(=O)[C@@H](NC(=O)[C@H](C)NC(=O)[C@@H]1CSSC[C@H](NC(=O)[C@@H](N)CN)C(=O)N[C@@H](CC(N)=O)C(=O)N[C@@H]([C@@H](C)O)C(=O)N[C@@H](C)C(=O)N[C@@H]([C@@H](C)O)C(=O)N1)[C@@H](C)O)C(=O)N[C@@H](CC(C)C)C(=O)N1CCC[C@H]1C(=O)N1CCC[C@H]1C(=O)N[C@H](C(=O)N[C@@H](CC(N)=O)C(=O)N[C@H](C(=O)NCC(=O)N[C@@H](CO)C(=O)N[C@@H](CC(N)=O)C(=O)N[C@H](C(=O)N1C[C@H](O)C[C@H]1C(N)=O)[C@@H](C)O)C(C)C)[C@@H](C)O [PD073] (H-[Dap]CNTATCATQRLADFLRHSSNNLK([γGlu-C20 diacid])PILPPTNVGSNT[Hyp]-NH2; disulfide 2-7) | 10.20 |
| CC[C@H](C)[C@H](NC(=O)[C@@H]1CCCN1C(=O)[C@H](CCCCNC(=O)CC[C@H](NC(=O)CCCCCCCCCCCCCCCCCCC(=O)O)C(=O)O)NC(=O)[C@H](CC(C)C)NC(=O)[C@H](CC(N)=O)NC(=O)[C@H](CC(N)=O)NC(=O)[C@H](CO)NC(=O)[C@H](CO)NC(=O)[C@H](Cc1c[nH]cn1)NC(=O)[C@H](CCCNC(=N)N)NC(=O)[C@H](CC(C)C)NC(=O)[C@H](Cc1ccccc1)NC(=O)[C@H](CC(=O)O)NC(=O)[C@H](C)NC(=O)[C@H](CC(C)C)NC(=O)[C@H](CCCNC(=N)N)NC(=O)[C@H](CCC(N)=O)NC(=O)[C@@H](NC(=O)[C@H](C)NC(=O)[C@@H]1CSSC[C@H](NC(=O)[C@@H](N)CC(=O)O)C(=O)N[C@@H](CC(N)=O)C(=O)N[C@@H]([C@@H](C)O)C(=O)N[C@@H](C)C(=O)N[C@@H]([C@@H](C)O)C(=O)N1)[C@@H](C)O)C(=O)N[C@@H](CC(C)C)C(=O)N1CCC[C@H]1C(=O)N1CCC[C@H]1C(=O)N[C@H](C(=O)N[C@@H](CC(N)=O)C(=O)N[C@H](C(=O)NCC(=O)N[C@@H](CO)C(=O)N[C@@H](CC(N)=O)C(=O)N[C@H](C(=O)N1C[C@H](O)C[C@H]1C(N)=O)[C@@H](C)O)C(C)C)[C@@H](C)O [PD079] (H-DCNTATCATQRLADFLRHSSNNLK([γGlu-C20 diacid])PILPPTNVGSNT[Hyp]-NH2; disulfide 2-7) | 9.88 |
| CC[C@H](C)[C@H](NC(=O)[C@@H]1CCCN1C(=O)CNC(=O)[C@H](CC(C)C)NC(=O)[C@H](CC(N)=O)NC(=O)[C@H](CC(N)=O)NC(=O)[C@H](CCCCNC(=O)COCCOCCNC(=O)COCCOCCNC(=O)CC[C@H](NC(=O)CCCCCCCCCCCCCCCCC(=O)O)C(=O)O)NC(=O)[C@H](CO)NC(=O)[C@H](Cc1c[nH]cn1)NC(=O)[C@H](CCCNC(=N)N)NC(=O)[C@H](CC(C)C)NC(=O)[C@H](Cc1ccccc1)NC(=O)[C@H](CC(=O)O)NC(=O)[C@H](C)NC(=O)[C@H](CC(C)C)NC(=O)[C@H](CCCNC(=N)N)NC(=O)[C@H](CCC(N)=O)NC(=O)[C@@H](NC(=O)[C@H](C)NC(=O)[C@@H]1CSSC[C@H](NC(=O)[C@@H](N)CCCNC(=N)N)C(=O)N[C@@H](CC(N)=O)C(=O)N[C@@H]([C@@H](C)O)C(=O)N[C@@H](C)C(=O)N[C@@H]([C@@H](C)O)C(=O)N1)[C@@H](C)O)C(=O)N[C@@H](CC(C)C)C(=O)N1CCC[C@H]1C(=O)N1CCC[C@H]1C(=O)N[C@H](C(=O)N[C@@H](CC(N)=O)C(=O)N[C@H](C(=O)NCC(=O)N[C@@H](CO)C(=O)N[C@@H](CC(N)=O)C(=O)N[C@H](C(=O)N1C[C@H](O)C[C@H]1C(N)=O)[C@@H](C)O)C(C)C)[C@@H](C)O [PD097] (H-RCNTATCATQRLADFLRHSK([AEEA-AEEA-γGlu-C18 diacid])NNLGPILPPTNVGSNT[Hyp]-NH2; disulfide 2-7) | 10.85 |
| CC[C@H](C)[C@H](NC(=O)[C@@H]1CCCN1C(=O)[C@H](CCCCN)NC(=O)[C@H](CC(C)C)NC(=O)[C@H](CC(N)=O)NC(=O)[C@H](CC(N)=O)NC(=O)[C@H](CO)NC(=O)[C@H](CO)NC(=O)[C@H](Cc1c[nH]cn1)NC(=O)[C@H](CCCNC(=N)N)NC(=O)[C@H](CC(C)C)NC(=O)[C@H](Cc1ccccc1)NC(=O)[C@H](CC(=O)O)NC(=O)[C@H](C)NC(=O)[C@H](CC(C)C)NC(=O)[C@H](CCCNC(=N)N)NC(=O)[C@H](CCC(N)=O)NC(=O)[C@@H](NC(=O)[C@H](C)NC(=O)[C@@H]1CSSC[C@H](NC(=O)[C@H](CCCCN)NC(=O)COCCOCCNC(=O)COCCOCCNC(=O)C[C@H](NC(=O)CCCCCCCCCCCCCCCCCCC(=O)O)C(=O)O)C(=O)N[C@@H](CC(N)=O)C(=O)N[C@@H]([C@@H](C)O)C(=O)N[C@@H](C)C(=O)N[C@@H]([C@@H](C)O)C(=O)N1)[C@@H](C)O)C(=O)N[C@@H](CC(C)C)C(=O)N1CCC[C@H]1C(=O)N1CCC[C@H]1C(=O)N[C@H](C(=O)N[C@@H](CC(N)=O)C(=O)N[C@H](C(=O)NCC(=O)N[C@@H](CO)C(=O)N[C@@H](CC(N)=O)C(=O)N[C@H](C(=O)N1C[C@H](O)C[C@H]1C(N)=O)[C@@H](C)O)C(C)C)[C@@H](C)O [PD183] ({C20 diacid-βAsp-AEEA-AEEA}-KCNTATCATQRLADFLRHSSNNLKPILPPTNVGSNT[Hyp]-NH2; disulfide 2-7) | 10.40 |
| CC[C@H](C)[C@H](NC(=O)[C@@H]1CCCN1C(=O)[C@H](CCCCN)NC(=O)[C@H](CC(C)C)NC(=O)[C@H](CC(N)=O)NC(=O)[C@H](CC(N)=O)NC(=O)[C@H](CO)NC(=O)[C@H](CO)NC(=O)[C@H](Cc1c[nH]cn1)NC(=O)[C@H](CCCNC(=N)N)NC(=O)[C@H](CC(C)C)NC(=O)[C@H](Cc1ccccc1)NC(=O)[C@H](CC(=O)O)NC(=O)[C@H](C)NC(=O)[C@H](CC(C)C)NC(=O)[C@H](CCCNC(=N)N)NC(=O)[C@H](CCC(N)=O)NC(=O)[C@@H](NC(=O)[C@H](C)NC(=O)[C@@H]1CSSC[C@H](NC(=O)[C@H](CCCCN)NC(=O)[C@H](CC(=O)O)NC(=O)COCCOCCNC(=O)COCCOCCNC(=O)CCCCCCCCCCCCCCCCCCC(=O)O)C(=O)N[C@@H](CC(N)=O)C(=O)N[C@@H]([C@@H](C)O)C(=O)N[C@@H](C)C(=O)N[C@@H]([C@@H](C)O)C(=O)N1)[C@@H](C)O)C(=O)N[C@@H](CC(C)C)C(=O)N1CCC[C@H]1C(=O)N1CCC[C@H]1C(=O)N[C@H](C(=O)N[C@@H](CC(N)=O)C(=O)N[C@H](C(=O)NCC(=O)N[C@@H](CO)C(=O)N[C@@H](CC(N)=O)C(=O)N[C@H](C(=O)N1C[C@H](O)C[C@H]1C(N)=O)[C@@H](C)O)C(C)C)[C@@H](C)O [PD182] ({C20 diacid-AEEA-AEEA}-DKCNTATCATQRLADFLRHSSNNLKPILPPTNVGSNT[Hyp]-NH2; disulfide 3-8) | 10.47 |
| CC[C@H](C)[C@H](NC(=O)[C@@H]1CCCN1C(=O)[C@H](CCCCNC(=O)CC[C@H](NC(=O)CCCCCCCCCCCCCCCCCCC(=O)O)C(=O)O)NC(=O)[C@H](CC(C)C)NC(=O)[C@H](CC(N)=O)NC(=O)[C@H](CC(N)=O)NC(=O)[C@H](CO)NC(=O)[C@H](CO)NC(=O)[C@H](Cc1c[nH]cn1)NC(=O)[C@H](CCCNC(=N)N)NC(=O)[C@H](CC(C)C)NC(=O)[C@H](Cc1ccccc1)NC(=O)[C@H](CCC(=O)O)NC(=O)[C@H](C)NC(=O)[C@H](CC(C)C)NC(=O)[C@H](CCCNC(=N)N)NC(=O)[C@H](CCC(N)=O)NC(=O)[C@@H](NC(=O)[C@H](C)NC(=O)[C@@H]1CSSC[C@H](N)C(=O)N[C@@H](CC(N)=O)C(=O)N[C@@H]([C@@H](C)O)C(=O)N[C@@H](C)C(=O)N[C@@H]([C@@H](C)O)C(=O)N1)[C@@H](C)O)C(=O)N[C@@H](CC(C)C)C(=O)N1CCC[C@H]1C(=O)N1CCC[C@H]1C(=O)N[C@H](C(=O)N[C@@H](CC(N)=O)C(=O)N[C@H](C(=O)NCC(=O)N[C@@H](CO)C(=O)N[C@@H](CC(N)=O)C(=O)N[C@H](C(=O)N1C[C@H](O)C[C@H]1C(N)=O)[C@@H](C)O)C(C)C)[C@@H](C)O [PD053] (H-CNTATCATQRLAEFLRHSSNNLK([γGlu-C20 diacid])PILPPTNVGSNT[Hyp]-NH2; disulfide 1-6) | 10.12 |
